Assays:
[1] = test system: normal primary NK cells, pool 1 (3 donors), resting (IL-2 0 ng/mL); test: drug sensitivity score (DSS) (DSS units); higher = more sensitive; extreme values may be limits of the assay; details: 72 h
[2] = test system: YT (IL-2 2.5 ng/mL); test: as above; details: 72 h
[3] = test system: DERL-7 (IL-2 2.5 ng/mL); test: as above; details: 72 h
[4] = test system: KAI3 (IL-2 2.5 ng/mL); test: as above; details: 72 h
[5] = test system: IMC-1 (IL-2 20 ng/mL); test: as above; details: 72 h
[6] = test system: normal primary NK cells, pool 1 (3 donors) (IL-2 2.5 ng/mL); test: as above; details: 72 h
[7] = test system: normal primary NK cells, pool 2 (3 donors) (IL-2 2.5 ng/mL); test: as above; details: 72 h
[8] = test system: NK-92 (IL-2 2.5 ng/mL); test: as above; details: 72 h
[9] = test system: NKL (IL-2 2.5 ng/mL); test: as above; details: 72 h
[10] = test system: normal primary NK cells, pool 3 (3 donors) (IL-2 2.5 ng/mL); test: as above; details: 72 h
[11] = test system: SNK-6 (IL-2 2.5 ng/mL); test: as above; details: 72 h
[12] = test system: KHYG-1 (IL-2 2.5 ng/mL); test: as above; details: 72 h
[13] = test system: NK-YS (IL-2 2.5 ng/mL); test: as above; details: 72 h
[14] = test system: normal primary NK cells, pool 1 (3 donors), resting (IL-2 0 ng/mL); test: percent inhibition of viability; higher = more inhibition; details: 72 h
[15] = test system: YT (IL-2 2.5 ng/mL); test: as above; details: 72 h
[16] = test system: DERL-7 (IL-2 2.5 ng/mL); test: as above; details: 72 h
[17] = test system: KAI3 (IL-2 2.5 ng/mL); test: as above; details: 72 h
[18] = test system: IMC-1 (IL-2 20 ng/mL); test: as above; details: 72 h
[19] = test system: normal primary NK cells, pool 1 (3 donors) (IL-2 2.5 ng/mL); test: as above; details: 72 h
[20] = test system: normal primary NK cells, pool 2 (3 donors) (IL-2 2.5 ng/mL); test: as above; details: 72 h
[21] = test system: NK-92 (IL-2 2.5 ng/mL); test: as above; details: 72 h
[22] = test system: NKL (IL-2 2.5 ng/mL); test: as above; details: 72 h
[23] = test system: normal primary NK cells, pool 3 (3 donors) (IL-2 2.5 ng/mL); test: as above; details: 72 h
[24] = test system: SNK-6 (IL-2 2.5 ng/mL); test: as above; details: 72 h
[25] = test system: KHYG-1 (IL-2 2.5 ng/mL); test: as above; details: 72 h
[26] = test system: NK-YS (IL-2 2.5 ng/mL); test: as above; details: 72 h
[27] = test system: normal NK cells expanded with K562-aAPC; test: drug sensitivity score (DSS) (DSS units); higher = more sensitive; extreme values may be limits of the assay; details: 72 h; IL-2 2.5 ng/mL
Description: (§1)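 Drug sensitivity and resistance testing on K562-aAPC-expanded normal NK cells: 5 concentrations (10-fold steps over a 10,000-fold range), 72 h at 37 °C, viability by CellTiter-Glo normalised to DMSO and benzethonium chloride controls; DSS from the fitted curve.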

[28] = test system: normal NK cells expanded with K562-aAPC; test: percent inhibition of viability; higher = more inhibition; details: 72 h, IL-2 2.5 ng/mL
Description: as §1

CO[C@H]1C[C@@H]2CC[C@@H](C)[C@@](O)(O2)C(=O)C(=O)N2CCCC[C@H]2C(=O)O[C@H]([C@H](C)C[C@@H]2CC[C@@H](OP(C)(C)=O)[C@H](OC)C2)CC(=O)[C@H](C)/C=C(\C)[C@@H](O)[C@@H](OC)C(=O)[C@H](C)C[C@H](C)/C=C/C=C/C=C/1C [Ridaforolimus] (max concentration tested 100 nM)
Details | drug sensitivity score
[1] | 9.48
[2] | 11.2
[3] | 13.3
[4] | 12.4
[5] | 0
[6] | 3.96
[7] | 2.58
[8] | 3.73
[9] | 19.2
[10] | 0.06
[11] | 15.6
[12] | 5.97
[13] | 16
[27] | 1.24

percent inhibition of viability [%]
Details | 0.01 nM | 0.1 nM | 1 nM | 10 nM | 100 nM
[14] | -5.23 | 14.6 | 24.1 | 30.7 | 28.2
[15] | -4.71 | -6.15 | 16.4 | 48.4 | 45.6
[16] | -15.4 | 2.83 | 28.9 | 51.2 | 57.3
[17] | -4.12 | -7.54 | 27.9 | 44 | 48.8
[18] | -3.33 | -2.56 | -12.9 | -45.3 | -38.3
[19] | -8.79 | 8.41 | 13.3 | 20.3 | 11.8
[20] | -12.7 | 6.23 | 9.36 | 16.1 | 19.1
[21] | -28.6 | -5.36 | -5.98 | 12.4 | 39
[22] | -1.33 | 21.2 | 50.1 | 55 | 58.3
[23] | -5.53 | 6.52 | 5.98 | 8.12 | 11
[24] | -5.16 | -2.57 | 46.2 | 46 | 55
[25] | -5.83 | -9.85 | 0.66 | 26.3 | 51.1
[26] | -0.81 | 5.33 | 44.5 | 49.8 | 54.8
[28] | -10 | -8.61 | -0.94 | 10.6 | 16.8
